Measurements: patent publication US9206236B2, “Peptides for treating cancer” (Gene Signal International SA, priority 2010, dated 2015)

How the values were obtained:
[1] = target: T1, recruitment of the regulatory subunit (p85) of the enzyme PI-3K by IRS-1 (Homo sapiens, UniProt P27986); assay: Recruitment of p85 of PI-3K by IRS-1 (IRS-1 immunoprecipitation, anti-p85 immunoblot) in HMEC; format: cell-based; conditions: final concentration of peptide 500 μg/ml
T1 construct: endogenous in cells; host or cells: human microvascular endothelial cells (HMEC)
T1 sequence (P27986 whole entry): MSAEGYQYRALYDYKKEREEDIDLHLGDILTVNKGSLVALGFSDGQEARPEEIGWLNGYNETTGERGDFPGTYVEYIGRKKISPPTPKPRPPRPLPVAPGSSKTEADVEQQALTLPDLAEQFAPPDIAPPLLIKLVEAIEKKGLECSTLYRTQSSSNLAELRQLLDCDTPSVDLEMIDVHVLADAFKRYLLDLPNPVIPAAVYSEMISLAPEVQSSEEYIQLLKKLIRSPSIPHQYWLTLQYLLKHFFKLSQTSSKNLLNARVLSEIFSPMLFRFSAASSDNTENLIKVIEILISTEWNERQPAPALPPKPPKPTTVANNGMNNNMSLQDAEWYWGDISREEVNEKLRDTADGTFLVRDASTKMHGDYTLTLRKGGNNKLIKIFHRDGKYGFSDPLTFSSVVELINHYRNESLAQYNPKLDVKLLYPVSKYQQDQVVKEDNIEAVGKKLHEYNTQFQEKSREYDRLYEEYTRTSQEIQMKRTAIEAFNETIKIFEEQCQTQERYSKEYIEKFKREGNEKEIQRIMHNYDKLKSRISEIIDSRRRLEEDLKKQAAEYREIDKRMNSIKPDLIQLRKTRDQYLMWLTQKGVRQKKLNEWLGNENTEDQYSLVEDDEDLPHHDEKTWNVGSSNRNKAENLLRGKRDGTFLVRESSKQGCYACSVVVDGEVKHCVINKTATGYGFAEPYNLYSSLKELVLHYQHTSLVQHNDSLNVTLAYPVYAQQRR
Experimental: (§1) Human EC grown in EGM-2MV (80% confluence) were incubated with the peptides of the invention or vehicle for the indicated time, washed three times in cold PBS and directly lysed in 2 ml of ice-cold lysis buffer (10 mM Tris pH 7.5, 150 mM NaCl, 1 mM PMSF, 0.5 μg/ml leupeptin, 1 μg/ml pepstatin A, and 1 μg/ml aprotinin) by incubation for 30 min at 4° C. Cell lysate were spun at […] for 10 min, insoluble materials were discarded, and protein contents measured by Bradford assay of supernatants were adjusted. Cell lysate (1 ml) was precleared with 25 μl of protein G-plus agarose beads (Santa Cruz) for 30 min, and proteins were then immunoprecipitated by adding 2 μg of the indicated antibody and incubated for 1 hr. The immunocomplex was pulled down with protein G-plus agarose beads and the beads were washed three times with lysis buffer. The immunoprecipitates were separated by NuPAGE® 4-12% Bis-Tris gel electrophoresis under reducing conditions, transferred to PVDF membrane (Novex System, Invitrogen), and the membrane was blocked with 5% (w/v) non-fat milk in TBS containing 0.1% v/v Tween-20 for 1 hr.
As it is widely admitted that the tyrosine phosphorylation of IRS-1 leads to its association with the regulatory subunit (p85) of the enzyme PI-3K, and this event lead to important increases in the enzymatic activity of this later, we have investigated the influence of the tyrosine phosphorylated and non phosphorylated peptides onto the recruitment of the regulatory subunit (p85) of the enzyme PI-3K by IRS-1. For that, human microvascular endothelial cells (HMEC) were incubated with the tyrosine phosphorylated and non phosphorylated peptides (final concentration of peptide 500 μg/ml) followed by cells lysis and immuoprecipitation of the protein IRS-1. The immunoprecipitates were then resolved in SDS-PAGE, proteins were transferred to membranes, and the membranes were immunoblotted with an anti-p85 PI3K monoclonal antibody.

[2] = Body weight and toxicity of mice bearing NCI-H460 tumors (Example 3); format: in vivo
Experimental: All experiments were reviewed by the Genopole's institutional animal care and use committee and were performed in accordance with institutional guidelines for animal care. Female BALB/c nu/nu mice (n=30) were used at 5-6 weeks of age. The animals were housed in laminar air-flow cabinets under pathogen-free conditions with a 12 h light/12 h dark schedule, and fed autoclaved standard chow and water ad libitum. […] Tumor cells (10^7 cells in 200 μl of HBSS) were injected subcutaneously into the right flanks of mice. […] At tumor volume about 150 mm^3, animals were randomized, and separated into five groups of five animals. Control mice (group 1) were intraperitoneally injected with vehicle (10% DMSO in buffer saline) every day. GS-0 was dissolved in vehicle and intraperitoneally injected (group 2) every day (12 injections). GS-2 was dissolved in vehicle and intraperitoneally injected (group 3) every day (12 injections). Tumor volume and body weight were measured every other day over the treatment period (12 days).

[3] = Solubility of peptides in 10% DMSO in PBS; format: physicochemical; conditions: 1 mg of peptide/ml of 10% DMSO in PBS
Experimental: GS-1 as well as the control peptide GS-0 were solubilized in DMSO and the resulting solutions were diluted 10 times with phosphate buffer saline (PBS) to obtain a concentration of 1 mg of peptide/ml of 10% DMSO in PBS. At this concentration, all peptides were soluble in 10% DMSO.
GS-2 as well as the control peptide GS-0 were solubilized in DMSO and the resulting solutions were diluted 10 times with phosphate buffer saline (PBS) to obtain a concentration of 1 mg of peptide/ml of 10% DMSO in PBS. At this concentration, all peptides were soluble in 10% DMSO.

mTOR = mTOR status in HMEC after incubation with peptides (anti-mTor antibody Ser2448); format: cell-based, human
Experimental: as §1
The status of mTOR in the HMEC following incubation with peptides GS-0 and GS-1 was investigated.

Question: What does the source list for “Ac-NYICMG-NH2 [GS-0, NYICMG, reference compound]”?
Answer: influence onto the recruitment of the regulatory subunit (p85) of PI3K by IRS-1 [1]: no and/or negligible influence; toxicity and body weight loss during treatment ([2]; 8 mg/kg intraperitoneally every day, 12 injections): No toxicity and no body weight loss; Mean body weight D1 ([2]; Table 3, 8 mg/kg i.p. daily, day 1, in g): 20.91; Mean body weight D3 ([2]; Table 3, 8 mg/kg i.p. daily, day 3, in g): 21.37; Mean body weight D5 ([2]; Table 3, 8 mg/kg i.p. daily, day 5, in g): 21.65; Mean body weight D7 ([2]; Table 3, 8 mg/kg i.p. daily, day 7, in g): 21.81; Mean body weight D9 ([2]; Table 3, 8 mg/kg i.p. daily, day 9, in g): 22.52; Mean body weight D11 ([2]; Table 3, 8 mg/kg i.p. daily, day 11, in g): 22.76; Mean body weight D13 ([2]; Table 3, 8 mg/kg i.p. daily, day 13, in g): 22.36; solubility in 10% DMSO [3]: soluble; amounts of mTOR in HMEC relative to vehicle (mTOR): equivalent amounts of mTOR as cell incubated with vehicle
